4 molecules from article PMC3530649 (Journal of the American Chemical Society, 2012) can be followed below.

The target of data set [1] is T1, (E)-β-farnesene synthase (EBFS) (Mentha x piperita, UniProt O48935).
T1 sequence (O48935 1-550): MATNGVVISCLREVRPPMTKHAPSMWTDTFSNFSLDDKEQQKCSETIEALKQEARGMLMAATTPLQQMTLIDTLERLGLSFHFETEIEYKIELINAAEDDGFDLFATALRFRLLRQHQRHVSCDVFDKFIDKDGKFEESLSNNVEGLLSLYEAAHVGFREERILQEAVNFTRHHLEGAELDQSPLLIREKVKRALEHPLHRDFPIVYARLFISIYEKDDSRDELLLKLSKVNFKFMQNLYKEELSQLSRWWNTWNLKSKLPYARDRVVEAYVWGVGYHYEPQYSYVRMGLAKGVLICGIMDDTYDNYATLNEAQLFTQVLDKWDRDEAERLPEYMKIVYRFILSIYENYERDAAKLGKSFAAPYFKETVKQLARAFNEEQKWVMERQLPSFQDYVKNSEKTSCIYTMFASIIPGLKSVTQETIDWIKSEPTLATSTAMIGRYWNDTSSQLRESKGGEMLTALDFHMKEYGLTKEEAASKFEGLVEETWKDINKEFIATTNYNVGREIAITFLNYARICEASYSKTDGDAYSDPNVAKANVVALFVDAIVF
Kind of data set: steady-state inhibition, radiometric microassay. Format: biochemical.

Substrate in the data set “purified protein”: CC(C)=CCC/C(C)=C/CC/C(C)=C/CO[P@@](=O)(O)OP(=O)(O)O
In words: purified protein. The following applies: labelled compound (tritiated).

Substrate in data set [2]: CC(C)=CCC/C(C)=C/CC/C(C)=C(\F)COP(=O)(O)OP(=O)(O)O
Kind of data set: steady-state kinetics, radiometric microassay. Conditions: labelled compound ((1RS)-2-fluoro[1-3H1]FDP). The class given is biochemical, Mentha x piperita.

Substrate in data set [3]: C=CC(C)(CC/C=C(\C)CCC=C(C)C)OP(=O)(O)OP(=O)(O)O
Kind of data set: steady-state kinetics, radiometric microassay. Conditions: labelled compound ((3RS)-(1Z)-trans-[1-3H1]NDP), racemic. Format: biochemical, Mentha x piperita.

Take `CC(C)=CCC/C(C)=C/CC/C(C)=C(\F)COP(=O)(O)OP(=O)(O)O` [2F-3, (2Z,6E)-2-fluorofarnesyl diphosphate]: affinity in data set [1] was put at a Ki of 1300 ± 100 nM. Still for that read-out and setting: with `CC(C)=CCC/C(C)=C/CC/C(=C/COP(=O)(O)OP(=O)(O)O)C(F)(F)F` [3CF3-3, (6E)-3-trifluoromethylfarnesyl diphosphate] the figure was 1600 ± 200 nM; with `CC(C)=CCC/C(C)=C/CCC(=CCOP(=O)(O)OP(=O)(O)O)CF` [3CH2F-3, (6E)-3-fluoromethylfarnesyl diphosphate], 2300 ± 200 nM.

B1: (E)-β-farnesene synthase (EBFS) (Mentha x piperita) (protein)
chain: MATNGVVISCLREVRPPMTKHAPSMWTDTFSNFSLDDKEQQKCSETIEALKQEARGMLMAATTPLQQMTLIDTLERLGLSFHFETEIEYKIELINAAEDDGFDLFATALRFRLLRQHQRHVSCDVFDKFIDKDGKFEESLSNNVEGLLSLYEAAHVGFREERILQEAVNFTRHHLEGAELDQSPLLIREKVKRALEHPLHRDFPIVYARLFISIYEKDDSRDELLLKLSKVNFKFMQNLYKEELSQLSRWWNTWNLKSKLPYARDRVVEAYVWGVGYHYEPQYSYVRMGLAKGVLICGIMDDTYDNYATLNEAQLFTQVLDKWDRDEAERLPEYMKIVYRFILSIYENYERDAAKLGKSFAAPYFKETVKQLARAFNEEQKWVMERQLPSFQDYVKNSEKTSCIYTMFASIIPGLKSVTQETIDWIKSEPTLATSTAMIGRYWNDTSSQLRESKGGEMLTALDFHMKEYGLTKEEAASKFEGLVEETWKDINKEFIATTNYNVGREIAITFLNYARICEASYSKTDGDAYSDPNVAKANVVALFVDAIVF
Take B1: the Michaelis-Menten constant (Km) (commonly the substrate concentration at which the rate is half of its maximum) in “purified protein” was found to be 1.8 ± 0.2 µM; in data set [2] it was 1.6 ± 0.2 µM; in data set [3], 25.0 ± 4.2 µM.
